Laboratory results published in ChEMBL document CHEMBL1152950, “Cytotoxic activity and inhibitory effect on nitric oxide production of triterpene saponins from the roots of Physospermum verticillatum (Waldst & Kit) (Apiaceae)” (Bioorg Med Chem, 2009).

Key:
RAW264.7 [1] = assay: Antiinflammatory activity in LPS-stimulated mouse RAW264.7 cells assessed as inhibition of NO production after 24 hrs by Griess reagent method; format: functional, cell-based; settings: for IC50: RAW264.7, 24 h
ACHN = assay: Cytotoxicity against human ACHN cells after 48 hrs by SRB assay; format: functional, cell-based
[2] = Cytotoxicity against human 142BR cells after 48 hrs by SRB assay; format: cell-based; settings: for IC50: Homo sapiens; for Activity: human
MCF7 [3] = assay: Cytotoxicity against human MCF7 cells after 48 hrs by SRB assay; format: functional, cell-based; settings: MCF7, 48 h
Caco-2 = assay: Cytotoxicity against human Caco-2 cells after 48 hrs by SRB assay; format: functional, cell-based; settings: for IC50: Caco-2, 48 h
COR-L23 = assay: Cytotoxicity against human COR-L23 cells after 48 hrs by SRB assay; format: functional, cell-based; settings: for IC50: COR-L23, 48 h
A549 = assay: Cytotoxicity against human A549 cells after 48 hrs by SRB assay; format: functional, cell-based; settings: A549, 48 h
RAW264.7 [4] = assay: Cytotoxicity against mouse RAW264.7 cells by MTT assay; format: cell-based
[5] = system: Radical scavenging activity; assay: Antioxidant activity assessed as DPPH radical scavenging activity by spectrophotometry; format: functional
C32 = assay: Cytotoxicity against human C32 cells after 48 hrs by SRB assay; format: functional, cell-based; settings: for IC50: C32, 48 h
A-375 = assay: Cytotoxicity against human A375 cells after 48 hrs by SRB assay; format: functional, cell-based; settings: for IC50: A-375, 48 h
[6] = Cytotoxicity against human Huh-7D12 cells after 48 hrs by SRB assay; format: functional, cell-based; settings: Huh-7D12, 48 h
LNCaP = assay: Cytotoxicity against human LNCAP cells after 48 hrs by SRB assay; format: functional, cell-based
SK-OV-3 = assay: Cytotoxicity against human SKOV3 cells; format: functional, cell-based
HL-60 = assay: Cytotoxicity against human HL60 cells; format: functional, cell-based
MCF7 [7] = assay: Cytotoxicity against human MCF7 cells; format: functional, cell-based
HT-29 = assay: Cytotoxicity against human HT-29 cells; format: functional, cell-based

IC50 [5]	IC50 (RAW264.7 [1]) [µM]	SMILES	Activity (RAW264.7 [1])	Activity (ACHN)	IC50 (ACHN) [µM]	IC50 [2] [µM]	Activity [2]	IC50 (MCF7 [3]) [µM]	Activity (Caco-2)	IC50 (Caco-2) [µM]	Activity (COR-L23)	IC50 (COR-L23) [µM]	IC50 (A549) [µM]	IC50 (RAW264.7 [4]) [µM]	Activity (C32)	IC50 (C32) [µM]	Activity (A-375)	IC50 (A-375) [µM]	IC50 [6] [µM]	IC50 (LNCaP) [µM]	further results
		COc1ccc2c(c1)c(CC(=O)O)c(C)n2C(=O)c1ccc(Cl)cc1	Dose-dependent effect																		
Not Active	102	C[C@H]1O[C@@H](O[C@H]2CC[C@@]3(C)[C@@H](CC[C@]4(C)[C@@H]3C=C[C@]35OC[C@@]6(CCC(C)(C)C[C@H]63)[C@@H](O)C[C@]54C)[C@]2(C)CO)[C@H](O)[C@@H](O[C@@H]2O[C@H](CO)[C@@H](O)[C@H](O)[C@H]2O)[C@H]1O [SAIKOSAPONIN A]	Dose-dependent effect	Dose-dependent effect	> 50	> 50	Dose-dependent effect	> 50	Dose-dependent effect	17.9	Dose-dependent effect	0.6	17.7	> 200	Dose-dependent effect	43.5	Dose-dependent effect	23.9	> 50	> 50	
		CC(=O)O[C@H]1C(=O)[C@@]2(C)[C@H]([C@H](OC(=O)c3ccccc3)[C@]3(O)C[C@H](OC(=O)[C@H](O)[C@@H](NC(=O)c4ccccc4)c4ccccc4)C(C)=C1C3(C)C)[C@]1(OC(C)=O)CO[C@@H]1C[C@@H]2O [PACLITAXEL]		Dose-dependent effect			Dose-dependent effect	0.08	Dose-dependent effect		Dose-dependent effect				Dose-dependent effect		Dose-dependent effect				
		CC[C@]1(O)C[C@@H]2CN(CCc3c([nH]c4ccccc34)[C@@](C(=O)OC)(c3cc4c(cc3OC)N(C)[C@H]3[C@@](O)(C(=O)OC)[C@H](OC(C)=O)[C@]5(CC)C=CCN6CC[C@]43[C@@H]65)C2)C1.O=S(=O)(O)O [VINBLASTINE SULFATE]		Dose-dependent effect	22.7	37.6	Dose-dependent effect		Dose-dependent effect	69	Dose-dependent effect	45.5			Dose-dependent effect	3	Dose-dependent effect	7.2	45.6	29.3	
		CC1(C)C[C@@H]2C3=CC[C@@H]4[C@@]5(C)CC[C@H](O[C@H]6OC[C@H](O)[C@H](O[C@@H]7O[C@H](CO)[C@@H](O)[C@H](O)[C@H]7O)[C@H]6O)C(C)(C)[C@@H]5CC[C@@]4(C)[C@]3(C)C[C@H](O)[C@@]2(CO)[C@H](OC(=O)c2ccccc2)C1 [GLOCHIERIOSIDE A]																			IC50 (SK-OV-3): 22.7 µM; IC50 (HL-60): 5.5 µM; IC50 (MCF7 [7]): 29.1 µM; IC50 (HT-29): 6.8 µM
		O=C1O[C@H]([C@@H](O)CO)C(O)=C1O [ASCORBIC ACID]																			IC50 ([5]; read-out: IC50): 0.002 µM
Not Active	10.4	C[C@H]1O[C@@H](O[C@H]2CC[C@@]3(C)[C@@H](CC[C@]4(C)[C@@H]3C=C[C@]35OC[C@@]6(CCC(C)(C)C[C@H]63)[C@@H](O)C[C@]54C)[C@]2(C)CO)[C@H](O)[C@@H](O[C@@H]2O[C@H](CO)[C@@H](O)[C@H](O[C@@H]3O[C@H](CO)[C@@H](O)[C@H](O)[C@H]3O[C@@H]3O[C@H](CO)[C@@H](O)[C@H](O)[C@H]3O)[C@H]2O)[C@H]1O [SONGAROSAPONIN D]	Dose-dependent effect	Dose-dependent effect	37.2	> 50	Dose-dependent effect	> 50	Dose-dependent effect	16.7	Dose-dependent effect	0.4	41.1	56.1	Dose-dependent effect	14	Dose-dependent effect	12.4	> 50	> 50	
		CC1(C)C[C@@H]2C3=CC[C@@H]4[C@@]5(C)CC[C@H](O[C@@H]6OC[C@@H](O)[C@H](O[C@@H]7O[C@H](CO)[C@@H](O)[C@H](O)[C@H]7O)[C@H]6O)C(C)(C)[C@@H]5CC[C@@]4(C)[C@]3(C)C[C@H](O)[C@@]2(CO)[C@H](OC(=O)c2ccccc2)C1 [GLOCHIERIOSIDE B]																			IC50 (SK-OV-3): 16 µM; IC50 (HL-60): 6.6 µM; IC50 (MCF7 [7]): 36.1 µM; IC50 (HT-29): 18.6 µM
Not Active	4.2	C[C@H]1O[C@@H](O[C@H]2CC[C@@]3(C)[C@@H](CC[C@]4(C)[C@@H]3C=C[C@]35OC[C@@]6(CCC(C)(C)C[C@H]63)[C@@H](O)C[C@]54C)[C@]2(C)CO)[C@H](O[C@@H]2O[C@H](CO)[C@@H](O)[C@H](O)[C@H]2O)[C@@H](O[C@@H]2O[C@H](CO)[C@@H](O)[C@H](O)[C@H]2O)[C@H]1O [BUDDLEJASAPONIN IV]	Dose-dependent effect	Dose-dependent effect	7.9	> 50	Dose-dependent effect	> 50	Dose-dependent effect	40.7	Dose-dependent effect	0.4	38.3	10.6	Dose-dependent effect	26.9	Dose-dependent effect	14.6	> 50	> 50	
